PubChem BioAssay AID1259407 (Chemical Carcinogenesis Research Information System (CCRIS), 2018)
The source made the active and inactive calls. How the calls were made is not given here.

Tested on: CCRIS mutagenicity, Ames/micronucleus/aberration tests
Assay: CCRIS mutagenicity studies
[1] = Test System: AMES SALMONELLA TYPHIMURIUM, Strain/Indicator: TA98, Metabolic Activation: NONE, Method: PREINCUBATION
[2] = Test System: AMES SALMONELLA TYPHIMURIUM, Strain/Indicator: TA100, Metabolic Activation: HAMSTER, LIVER, S-9, AROCLOR 1254 (10%), Method: PREINCUBATION
[3] = Test System: AMES SALMONELLA TYPHIMURIUM, Strain/Indicator: TA100, Metabolic Activation: NONE, Method: PREINCUBATION
[4] = Test System: AMES SALMONELLA TYPHIMURIUM, Strain/Indicator: TA1535, Metabolic Activation: NONE, Method: PREINCUBATION
[5] = Test System: AMES SALMONELLA TYPHIMURIUM, Strain/Indicator: TA100, Metabolic Activation: NONE, Method: STANDARD PLATE

Question: For ClC1C(Br)C(Br)C(Br)C(Br)C1Br (stereo not given), which mutagenic call (Test System: AMES SALMONELLA TYPHIMURIUM, Strain/Indicator: TA97, Metabolic Activation: HAMSTER, LIVER, S-9, AROCLOR 1254 (5, 10 OR 30%), Method: PREINCUBATION) is on record?
Answer: inactive; negative

Question: What about the mutagenic call (Test System: AMES SALMONELLA TYPHIMURIUM, Strain/Indicator: TA97, Metabolic Activation: NONE, Method: PREINCUBATION) of the same molecule?
Answer: inactive; negative

Question: What about the mutagenic call (Test System: AMES SALMONELLA TYPHIMURIUM, Strain/Indicator: TA97, Metabolic Activation: RAT, LIVER, S-9, AROCLOR 1254 (10 OR 30%), Method: PREINCUBATION) of the same molecule?
Answer: inactive; negative

Question: And the mutagenic call (Test System: AMES SALMONELLA TYPHIMURIUM, Strain/Indicator: TA98, Metabolic Activation: HAMSTER, LIVER, S-9, AROCLOR 1254 (10 OR 30%), Method: PREINCUBATION)?
Answer: inactive; negative

Question: And the mutagenic call [1]?
Answer: inactive; negative

Question: What about the mutagenic call (Test System: AMES SALMONELLA TYPHIMURIUM, Strain/Indicator: TA98, Metabolic Activation: RAT, LIVER, S-9, AROCLOR 1254 (10 OR 30%), Method: PREINCUBATION) of the same molecule?
Answer: inactive; negative

Question: And the mutagenic call [2]?
Answer: inactive; negative

Question: And the mutagenic call (Test System: AMES SALMONELLA TYPHIMURIUM, Strain/Indicator: TA100, Metabolic Activation: HAMSTER, LIVER, S-9, AROCLOR 1254 (30%), Method: PREINCUBATION)?
Answer: inactive; negative

Question: What about the mutagenic call [3] of the same molecule?
Answer: inactive; negative

Question: What about the mutagenic call (Test System: AMES SALMONELLA TYPHIMURIUM, Strain/Indicator: TA100, Metabolic Activation: RAT, LIVER, S-9, AROCLOR 1254 (10 OR 30%), Method: PREINCUBATION) of the same molecule?
Answer: inactive; negative

Question: And the mutagenic call (Test System: AMES SALMONELLA TYPHIMURIUM, Strain/Indicator: TA1535, Metabolic Activation: HAMSTER, LIVER, S-9, AROCLOR 1254 (5 OR 10%), Method: PREINCUBATION)?
Answer: inactive; negative

Question: And the mutagenic call (Test System: AMES SALMONELLA TYPHIMURIUM, Strain/Indicator: TA1535, Metabolic Activation: HAMSTER, LIVER, S-9, AROCLOR 1254 (30%), Method: PREINCUBATION)?
Answer: inactive; negative

Question: What about the mutagenic call [4] of the same molecule?
Answer: inactive; negative

Question: What about the mutagenic call (Test System: AMES SALMONELLA TYPHIMURIUM, Strain/Indicator: TA1535, Metabolic Activation: RAT, LIVER, S-9, AROCLOR 1254 (10 OR 30%), Method: PREINCUBATION) of the same molecule?
Answer: inactive; negative

Question: c1ccc(OP(Oc2ccccc2)Oc2ccccc2)cc1 was tested. Which mutagenic call (Test System: AMES SALMONELLA TYPHIMURIUM, Strain/Indicator: TA98, Metabolic Activation: HAMSTER, LIVER, S-9, AROCLOR 1254 (10%), Method: PREINCUBATION) did it give?
Answer: inactive; negative

Question: What about the mutagenic call [1] of the same molecule?
Answer: inactive; negative

Question: And the mutagenic call (Test System: AMES SALMONELLA TYPHIMURIUM, Strain/Indicator: TA98, Metabolic Activation: RAT, LIVER, S-9, AROCLOR 1254 (10%), Method: PREINCUBATION)?
Answer: inactive; negative

Question: And the mutagenic call [2]?
Answer: inactive; negative

Question: And the mutagenic call [3]?
Answer: inactive; negative

Question: And the mutagenic call (Test System: AMES SALMONELLA TYPHIMURIUM, Strain/Indicator: TA100, Metabolic Activation: RAT, LIVER, S-9, AROCLOR 1254 (10%), Method: PREINCUBATION)?
Answer: inactive; negative

Question: What about the mutagenic call (Test System: AMES SALMONELLA TYPHIMURIUM, Strain/Indicator: TA1535, Metabolic Activation: HAMSTER, LIVER, S-9, AROCLOR 1254 (10%), Method: PREINCUBATION) of the same molecule?
Answer: inactive; negative

Question: What about the mutagenic call [4] of the same molecule?
Answer: inactive; negative

Question: What about the mutagenic call (Test System: AMES SALMONELLA TYPHIMURIUM, Strain/Indicator: TA1535, Metabolic Activation: RAT, LIVER, S-9, AROCLOR 1254 (10%), Method: PREINCUBATION) of the same molecule?
Answer: inactive; negative

Question: And the mutagenic call (Test System: AMES SALMONELLA TYPHIMURIUM, Strain/Indicator: TA1537, Metabolic Activation: HAMSTER, LIVER, S-9, AROCLOR 1254 (10%), Method: PREINCUBATION)?
Answer: inactive; negative

Question: What about the mutagenic call (Test System: AMES SALMONELLA TYPHIMURIUM, Strain/Indicator: TA1537, Metabolic Activation: NONE, Method: PREINCUBATION) of the same molecule?
Answer: inactive; negative

Question: And the mutagenic call (Test System: AMES SALMONELLA TYPHIMURIUM, Strain/Indicator: TA1537, Metabolic Activation: RAT, LIVER, S-9, AROCLOR 1254 (10%), Method: PREINCUBATION)?
Answer: inactive; negative

Question: With CCCCN1C2c3ccccc3-c3ccccc3C21 (stereo not given) as the molecule, how does the mutagenic call [5] read?
Answer: active; positive

Question: And the mutagenic call (Test System: CHINESE HAMSTER V-79, Strain/Indicator: V-79/6-THIOGUANINE, Metabolic Activation: NONE, Method: STANDARD PLATE)?
Answer: inactive; negative

Question: What does the source list for COc1ccc(-c2coc3cc(O)cc(O)c3c2=O)cc1?
Answer: mutagenic call (Test System: AMES SALMONELLA TYPHIMURIUM, Strain/Indicator: TA98, Metabolic Activation: HAMSTER, LIVER, S-9, AROCLOR 1254, Method: STANDARD PLATE): inactive; negative; mutagenic call (Test System: AMES SALMONELLA TYPHIMURIUM, Strain/Indicator: TA98, Metabolic Activation: NONE, Method: STANDARD PLATE): inactive; negative; mutagenic call (Test System: AMES SALMONELLA TYPHIMURIUM, Strain/Indicator: TA98, Metabolic Activation: RAT, LIVER, S-9, AROCLOR 1254, Method: STANDARD PLATE): inactive; negative; mutagenic call (Test System: AMES SALMONELLA TYPHIMURIUM, Strain/Indicator: TA100, Metabolic Activation: HAMSTER, LIVER, S-9, AROCLOR 1254, Method: STANDARD PLATE): inactive; negative; mutagenic call [5]: inactive; negative; mutagenic call (Test System: AMES SALMONELLA TYPHIMURIUM, Strain/Indicator: TA100, Metabolic Activation: RAT, LIVER, S-9, AROCLOR 1254, Method: STANDARD PLATE): inactive; negative; mutagenic call (Test System: AMES SALMONELLA TYPHIMURIUM, Strain/Indicator: TA1535, Metabolic Activation: HAMSTER, LIVER, S-9, AROCLOR 1254, Method: STANDARD PLATE): inactive; negative; mutagenic call (Test System: AMES SALMONELLA TYPHIMURIUM, Strain/Indicator: TA1535, Metabolic Activation: NONE, Method: STANDARD PLATE): inactive; negative; mutagenic call (Test System: AMES SALMONELLA TYPHIMURIUM, Strain/Indicator: TA1535, Metabolic Activation: RAT, LIVER, S-9, AROCLOR 1254, Method: STANDARD PLATE): inactive; negative; mutagenic call (Test System: AMES SALMONELLA TYPHIMURIUM, Strain/Indicator: TA1537, Metabolic Activation: HAMSTER, LIVER, S-9, AROCLOR 1254, Method: STANDARD PLATE): inactive; negative; mutagenic call (Test System: AMES SALMONELLA TYPHIMURIUM, Strain/Indicator: TA1537, Metabolic Activation: NONE, Method: STANDARD PLATE): inactive; negative; mutagenic call (Test System: AMES SALMONELLA TYPHIMURIUM, Strain/Indicator: TA1537, Metabolic Activation: RAT, LIVER, S-9, AROCLOR 1254, Method: STANDARD PLATE): inactive; negative; mutagenic call (Test System: AMES SALMONELLA TYPHIMURIUM, Strain/Indicator: TA1538, Metabolic Activation: HAMSTER, LIVER, S-9, AROCLOR 1254, Method: STANDARD PLATE): inactive; negative; mutagenic call (Test System: AMES SALMONELLA TYPHIMURIUM, Strain/Indicator: TA1538, Metabolic Activation: NONE, Method: STANDARD PLATE): inactive; negative; mutagenic call (Test System: AMES SALMONELLA TYPHIMURIUM, Strain/Indicator: TA1538, Metabolic Activation: RAT, LIVER, S-9, AROCLOR 1254, Method: STANDARD PLATE): inactive; negative; mutagenic call (Test System: MOUSE LYMPHOMA, Strain/Indicator: L5178Y (TK+/TK-), Metabolic Activation: NONE, Method: SUSPENSION/PLATE): active; positive. reevaluation of results: inconclusive; mutagenic call (Test System: MOUSE LYMPHOMA, Strain/Indicator: L5178Y (TK+/TK-), Metabolic Activation: RAT, LIVER, S-9, AROCLOR 1254, Method: SUSPENSION/PLATE): active; positive. reevaluation of results: positive; mutagenic call (Test System: SYRIAN HAMSTER EMBRYO CELLS, Strain/Indicator: HPRT/6-THIOGUANINE, Metabolic Activation: NONE, Method: PLATE): inactive; negative

Question: COc1cccc2c1C(=O)c1c(O)c3c(c(O)c1C2=O)C[C@@](O)(C(=O)CO)CC3O[C@H]1C[C@H](N(C)C)[C@H](O)[C@H](C)O1 (stereo not given in full) was tested. Which mutagenic call (Test System: AMES SALMONELLA TYPHIMURIUM, Strain/Indicator: TA98, Metabolic Activation: NONE) did it give?
Answer: inactive; negative

Question: What about the mutagenic call (Test System: AMES SALMONELLA TYPHIMURIUM, Strain/Indicator: TA98, Metabolic Activation: RAT, LIVER, S-9, AROCLOR 1254) of the same molecule?
Answer: inactive; negative

Question: What about the mutagenic call (Test System: AMES SALMONELLA TYPHIMURIUM, Strain/Indicator: TA102, Metabolic Activation: NONE, Method: STANDARD PLATE) of the same molecule?
Answer: active; positive

Question: What about the mutagenic call (Test System: UDS RAT HEPATOCYTES, Strain/Indicator: THY INCORP, Metabolic Activation: NONE, Method: AUTOMATIC COLONY COUNTER) of the same molecule?
Answer: active; positive
